According to EP0629400B1 (TAKEDA CHEMICAL INDUSTRIES, LTD., priority 1993, dated 1994):

Key:
[1] = system: Patients with Alzheimer type dementia; assay: Double-blind controlled study, efficacy by Alzheimer's Disease Assessment Scale (ADAS); format: in vivo; conditions: for Score Difference after 6 Months of Administration (mean ± SD): ADAS, n=100, severity increases as the value increases
Method: A double-blind controlled study was conducted in patients with Alzheimer type dementia.
There was no bias in background factors or pre-administration values for efficacy evaluation index among the three groups. Efficacy was evaluated by the Alzheimer's Disease Assessment Scale (ADAS) [American Journal of Psychiatry, Vol. 141, pp. 1356-1364, (1984)], an index for rating the therapeutic effect on Alzheimer's disease recommended by the FDA and all over the world. The results were statistically analyzed to rate the efficacy.
The drugs administered to the patients in the experiment were the tablet preparations of Example 1 and Comparative Examples 1 and 2 above.

mouse astroglias = conditions: cited from earlier work
[2] = system: patients with Alzheimer's disease; conditions: 45 mg twice a day (daily dose 90 mg); cited from earlier work

Compound: COC1=C(OC)C(=O)C(CCCCCCCCCCO)=C(C)C1=O [idebenone, 6-(10-hydroxydecyl)-2,3-dimethoxy-5-methyl-1,4-benzoquinone]
- symptoms of Alzheimer's disease ([1]; 90 mg 3 times a day, compared with 30 mg 3 times a day and placebo): improvement of statistical significance
- Score Difference after 6 Months of Administration (mean ± SD) ([1]; 30 mg TID oral after meals (tablets of Comparative Example 1)): -5.5 ± 7.2
- Score Difference after 6 Months of Administration (mean ± SD) ([1]; 90 mg TID oral after meals (tablets of Example 1)): -8.0 ± 8.5
- nerve growth factor (NGF) secretion (mouse astroglias): induction and promotion of nerve growth factor (NGF) secretion
- efficacy in patients with Alzheimer's disease [2]: proved effective
